In PubChem BioAssay (NCI) one finds TGI and GI50 data, which are given here for 17 compounds.

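All cell lines were grown in 96-well plates and treated with compound for 48 hours. GI50 = concentration required for 50% inhibition of growth. TGI: total growth inhibition.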

Among the test systems are 786-0 renal; UACC-257 melanoma; SK-MEL-5 melanoma; NCI-H226 lung; CCRF-CEM leukemia; NCI-H23 lung; T-47D breast; RXF 393 renal; PC-3 prostate.
Common to all, as to experiment: DTP human tumour cell line panel, 48 h

For orientation: TGI means the concentration giving total growth inhibition. A high value points to lower sensitivity of the cells. `CCOC(=O)/C(C#N)=C(N)/C(=N\Nc1cccc(C(F)(F)F)c1)C(=O)OCC`: the TGI in the assay on 786-0 renal, with UACC-257 melanoma, in the assay with SK-MEL-5 melanoma, with NCI-H226 lung, in the assay with CCRF-CEM leukemia and in the assay on NCI-H23 lung was greater than 100 µM throughout.
As a reminder, the GI50 is the concentration that inhibits growth by half. Take `CC(=O)NS(=O)(=O)c1ccc(-n2nc(-c3ccccc3)cc2C2=CC(=O)C=CC2=O)cc1`: the GI50 in the assay with 786-0 renal is 54.4 µM; in the assay with T-47D breast it was greater than 100 µM; in the assay on RXF 393 renal, greater than 100 µM; in the assay on UACC-257 melanoma it was greater than 100 µM; in the assay with SK-MEL-5 melanoma, 44.2 µM; in the assay with NCI-H226 lung, greater than 100 µM. Moreover, the GI50 with NCI-H23 lung and in the assay with PC-3 prostate was greater than 100 µM throughout. The TGI in the assay with 786-0 renal, in the assay with T-47D breast, in the assay on RXF 393 renal, in the assay on UACC-257 melanoma, in the assay on SK-MEL-5 melanoma and in the assay on NCI-H226 lung was greater than 100 µM in each case. The total growth inhibition concentration (TGI) in the assay on NCI-H23 lung and in the assay with PC-3 prostate was greater than 100 µM each time.
In the case of `CNC(C)Cc1ccc(O)cc1` (stereo not drawn), the TGI with 786-0 renal, in the assay on RXF 393 renal, in the assay on UACC-257 melanoma, in the assay on SK-MEL-5 melanoma, with NCI-H226 lung and in the assay with CCRF-CEM leukemia was greater than 100 µM throughout. The compound further came in with a TGI in the assay on NCI-H23 lung greater than 100 µM.
For the compound `c1ccc(COc2cccc3cccnc23)cc1`, the total growth inhibition concentration (TGI) in the assay on 786-0 renal, in the assay on RXF 393 renal, in the assay with UACC-257 melanoma, in the assay on SK-MEL-5 melanoma, in the assay with NCI-H226 lung and in the assay with CCRF-CEM leukemia was greater than 100 µM throughout. The compound further displayed a TGI with NCI-H23 lung greater than 100 µM.
`CC1=NN(C(=O)c2cc(Cl)cc([N+](=O)[O-])c2)C(=O)C1N=Nc1ccccc1C(=O)O` (stereo not drawn): the TGI with 786-0 renal, in the assay with RXF 393 renal, in the assay on UACC-257 melanoma, in the assay with SK-MEL-5 melanoma, in the assay on NCI-H226 lung and in the assay with CCRF-CEM leukemia was greater than 100 µM throughout. Further, the TGI with NCI-H23 lung is greater than 100 µM.
Consider `C/C=C/C(=O)[O-].N.N.N.N.N.[Co+3].[O-][Cl+3]([O-])([O-])[O-]`, for which the GI50 with 786-0 renal, in the assay with UACC-257 melanoma, in the assay on SK-MEL-5 melanoma, with CCRF-CEM leukemia and in the assay on NCI-H23 lung was greater than 100 µM throughout. Besides, the TGI in the assay on 786-0 renal, in the assay with UACC-257 melanoma, in the assay on SK-MEL-5 melanoma, in the assay on CCRF-CEM leukemia and in the assay with NCI-H23 lung was greater than 100 µM in each case.
Consider `Cc1cccc(O)c(=O)c1`, for which the TGI in the assay with 786-0 renal was greater than 100 µM; with RXF 393 renal it was greater than 100 µM; with UACC-257 melanoma, greater than 100 µM; in the assay with SK-MEL-5 melanoma it was greater than 100 µM; in the assay with NCI-H226 lung, 29.3 µM; with CCRF-CEM leukemia, 33.8 µM.
For `O=c1cccccc1NCCNc1cccccc1=O`, the total growth inhibition concentration (TGI) in the assay with 786-0 renal, in the assay with RXF 393 renal, with UACC-257 melanoma, in the assay with NCI-H226 lung, in the assay with CCRF-CEM leukemia and in the assay with NCI-H23 lung was greater than 100 µM each time.
On to `Cc1ccc(SCC(O)=C2C(=O)CCCC2=O)cc1`, for which the TGI with 786-0 renal, in the assay with RXF 393 renal, in the assay on UACC-257 melanoma, in the assay with SK-MEL-5 melanoma, with NCI-H226 lung and in the assay on CCRF-CEM leukemia was greater than 100 µM throughout. The TGI in the assay on NCI-H23 lung is greater than 100 µM.
In the case of `Cc1ccc(C)c2c1CCc1cc3ccccc3nc1-2`, the TGI in the assay on 786-0 renal, in the assay on UACC-257 melanoma, in the assay with SK-MEL-5 melanoma, in the assay on CCRF-CEM leukemia and in the assay on NCI-H23 lung was greater than 100 µM throughout.
In the case of `C[C@@H](c1ccccc1)N(CC#N)C1CCC[C@H]1O` (stereo partly drawn), the TGI in the assay on 786-0 renal, in the assay on RXF 393 renal, in the assay on UACC-257 melanoma, in the assay on SK-MEL-5 melanoma, in the assay with NCI-H226 lung and with CCRF-CEM leukemia was greater than 100 µM in each case. In the assay on NCI-H23 lung, this compound came in with a TGI greater than 100 µM.
`CC(=O)OCC(OC(C)=O)C(OC(C)=O)C(OC(C)=O)C(=O)CNn1c(-c2ccccc2Cl)nc2ccc(Br)cc2c1=O` (stereo not drawn): the total growth inhibition concentration (TGI) in the assay with 786-0 renal, in the assay with RXF 393 renal, in the assay with UACC-257 melanoma, in the assay with SK-MEL-5 melanoma, with CCRF-CEM leukemia and with NCI-H23 lung was greater than 100 µM throughout.
On to `CCC1(CC)C(=O)[N-]C(=O)[N-]C1=O.[Au+].[Au+].c1ccc([PH+](c2ccccc2)c2ccccc2)cc1.c1ccc([PH+](c2ccccc2)c2ccccc2)cc1`, for which the GI50 was 0.911 µM with 786-0 renal, 1.26 µM with UACC-257 melanoma and 1.05 µM with SK-MEL-5 melanoma. The TGI in the assay on 786-0 renal amounted to 2.14 µM; with UACC-257 melanoma, 2.53 µM; in the assay on SK-MEL-5 melanoma it was 2.26 µM.
Take `O=C(Nc1ccccc1C(=O)O)C(=O)C(C(=O)c1ccccc1-c1ccccc1)C1OC(=O)c2ccccc21` (stereo not drawn): the TGI in the assay on 786-0 renal was 33.3 µM; with RXF 393 renal, 27.2 µM; with UACC-257 melanoma, 37.7 µM; with SK-MEL-5 melanoma, 33.9 µM; in the assay with NCI-H226 lung it was 29.3 µM; in the assay on CCRF-CEM leukemia, 78.4 µM. The same compound registered a TGI in the assay on NCI-H23 lung of 40.5 µM.
Take `O=C1OC(c2ccccc2)=N/C1=C/N1CCCC1C(=O)O` (stereo not drawn): the TGI in the assay with 786-0 renal, in the assay with RXF 393 renal, in the assay with UACC-257 melanoma, in the assay on SK-MEL-5 melanoma, in the assay on NCI-H226 lung and with CCRF-CEM leukemia was greater than 100 µM throughout. In addition, in the assay on NCI-H23 lung, the TGI is greater than 100 µM.
As for `CN/N=C(\C(=O)Nc1ccc([N+](=O)[O-])cc1[N+](=O)[O-])C1NC(=O)NC1=O` (stereo not drawn), the TGI in the assay on 786-0 renal, in the assay with RXF 393 renal, in the assay on UACC-257 melanoma, in the assay with SK-MEL-5 melanoma, in the assay with NCI-H226 lung and in the assay on CCRF-CEM leukemia was greater than 100 µM in each case. This compound also had a TGI with NCI-H23 lung greater than 100 µM.
In the case of `O=C(O)c1oc2cccc3c2c1CCC3`, the concentration for total growth inhibition (TGI) with 786-0 renal, in the assay on RXF 393 renal, with UACC-257 melanoma, in the assay with SK-MEL-5 melanoma, in the assay with CCRF-CEM leukemia and with NCI-H23 lung was greater than 100 µM each time.
